The values that follow come from patent US8791116B2, “Myosin light chain kinase inhibitor compounds, compositions and related methods of use” (Northwestern University, priority 2006, dated 2014).

In one data set the target is MLCK (Homo sapiens, UniProt Q15746). The experiment in a line: MLCK inhibitory activity screen (32P-ATP peptide substrate phosphorylation). As to conditions: for IC50: 20 μM peptide substrate, 200 μM ATP, 20 min at 25° C., read-out: MLCK (μM), in vitro inhibition of kinases; for selectivity for MLCK over related protein kinases (in words): compared to DAPK, PKC and PKA. Type of data set: biochemical. The procedure:
(§1) MLCK inhibitory activity screens were done by incubation with 20 μM peptide substrate ([…]), 200 μM ATP and [^32P]-ATP (2.5 μCi per reaction) in assay buffer (50 mM HEPES, pH 7.5 with KOH, 5 mM MgCl2, 0.15 M KCl, 0.015 M NaCl, 1 mM DTT) with 0.1 mM CaCl2 and 1 μM calmodulin (New England Biolabs, MA). [T. J. Lukas, S. Mirzoeva, U. Slomczynska and D. M. Watterson, J. Med. Chem. 42 (1999) 910-9.] Reactions were initiated by addition of MLCK protein and incubated for 20 min at 25° C. Reactions were spotted onto P-81 paper (Whatman, Clifton, N.J.), washed with 75 mM H3PO4 and 95% EtOH, and quantified by scintillation counting in EcoScintO (National Diagnostics, Atlanta, Ga.). Testing of compounds for kinase inhibitory activity against the structurally and functionally related kinases death-associated protein kinase (DAPK) and the signal transduction pathway relevant kinases protein kinase A (PKA) and protein kinase C (PKC) was performed as described by using the corresponding peptide substrates and assay conditions. [[…]. Guo, […]. Bourguignon, […]. Van Eldik and D. M. Watterson, J. Med. Chem 45 (2002) 563-6; A. M. Schumacher, […] and D. M. Watterson, Biochemistry 43 (2004) 8116-24; […]. Schumacher and D. M. Watterson, Pharmacol Ther 93 (2002) 217-24; […]. Schumacher, C. Weiss, M. Egli and D. M. Watterson, J. Biol. Chem. 276 (2001) 38956-65; D. M. Watterson, S. Mirzoeva, L. Guo, […]. Bourguignon, […] and L. J. Van Eldik, Neurochem Int. 39 (2001) 459-68.]

The target of data set [1] is death-associated protein kinase (DAPK) (Homo sapiens, UniProt P53355). The experiment in a line: Kinase inhibitory activity against death-associated protein kinase. As to conditions: read-out: DAPK (μM), in vitro inhibition of kinases. It is filed as biochemical. How it is done:
as §1

The target in another data set is protein kinase C (PKC). The experiment in a line: Kinase inhibitory activity against protein kinase C. Type of data set: biochemical. As to conditions: read-out: PKC (μM), in vitro inhibition of kinases. How it is done:
MLCK inhibitory activity screens were done by incubation with 20 μM peptide substrate (KKRPQRATSNVFAM-NH2), 200 μM ATP and [^32P]-ATP (2.5 μCi per reaction) in assay buffer (50 mM HEPES, pH 7.5 with KOH, 5 mM MgCl2, 0.15 M KCl, 0.015 M NaCl, 1 mM DTT) with 0.1 mM CaCl2 and 1 μM calmodulin (New England Biolabs, MA). [T. J. Lukas, S. Mirzoeva, U. Slomczynska and D. M. Watterson, J. Med. Chem. 42 (1999) 910-9.] Reactions were initiated by addition of MLCK protein and incubated for 20 min at 25° C. Reactions were spotted onto P-81 paper (Whatman, Clifton, N.J.), washed with 75 mM H3PO4 and 95% EtOH, and quantified by scintillation counting in EcoScintO (National Diagnostics, Atlanta, Ga.). Testing of compounds for kinase inhibitory activity against the structurally and functionally related kinases death-associated protein kinase (DAPK) and the signal transduction pathway relevant kinases protein kinase A (PKA) and protein kinase C (PKC) was performed as described by using the corresponding peptide substrates and assay conditions. [S. Mirzoeva, A. Sawkar, M. Zasadzki, L. Guo, A. V. Velentza, V. Dunlap, J. J. Bourguignon, H. Ramstrom, J. Haiech, L. J. Van Eldik and D. M. Watterson, J. Med. Chem 45 (2002) 563-6; A. M. Schumacher, J. P. Schavocky, A. V. Velentza, S. Mirzoeva and D. M. Watterson, Biochemistry 43 (2004) 8116-24; A. V. Velentza, A. M. Schumacher and D. M. Watterson, Pharmacol Ther 93 (2002) 217-24; A. V. Velentza, A. M. Schumacher, C. Weiss, M. Egli and D. M. Watterson, J. Biol. Chem. 276 (2001) 38956-65; D. M. Watterson, S. Mirzoeva, L. Guo, A. Whyte, J. J. Bourguignon, M. Hibert, J. Haiech and L. J. Van Eldik, Neurochem Int. 39 (2001) 459-68.]

In another data set the target is protein kinase A (PKA) (Homo sapiens, UniProt P17612). The experiment in a line: Kinase inhibitory activity against protein kinase A. Type of data set: biochemical. As to conditions: read-out: PKA (μM), in vitro inhibition of kinases. How it is done: as §1
Data set [2] can be described thus: In vitro metabolic stability with human liver microsomes. It is filed as in vitro ADME. As to conditions: 5 μM compound, 10 and 30 min at 37° C., HPLC. How it is done: A standard screening of compounds for in vitro metabolic stability with human liver microsomes was done at 5 μM of compound using commercially available, calibrated human liver microsomes (BD Biosciences, Bedford, Mass.) and an NADPH-regenerating system. [D. Ackley, K. Rockich and T. Baker. in (Caldwell, Z. Y. a. G. W., ed.) Methods in pharmacology and toxicology optimization in drug discovery: in vitro methods, Humana Press Inc., Totowa, N.J. 2004, pp. 151-62.] Briefly, reaction mixtures were prepared in 0.1 M potassium phosphate buffer and contained 1.6 mg/ml microsomal protein, 5 μM test compound, 1.3 mM NADPH, 3.3 mM MgCl2, 0.4 U/ml glucose-6-phosphate dehydrogenase, and 3.3 mM glucose-6-phosphate in a total volume of 300 μl. Reactions were incubated for 10 and 30 minutes at 37° C. and halted by addition of cold acetonitrile. The mixture was centrifuged at 10000 g for 10 min and 20 μl of supernatant was analyzed by HPLC to quantify the percentage of the initial amount of compound remaining after incubation. The HPLC mobile phase consisted of 5% acetonitrile in water as reagent A and 80% acetonitrile/0.08% formic acid/water as reagent B at a flow rate of 0.2 ml/min. The gradient consisted of the following variations in % B: begin with % B at 0 for 2 min, 0-100% from 2 to 22 min, isocratic until 24 min. Peak quantification was done based upon absorption measurements at 260 nm relative to a standard curve obtained by serial dilutions of known amounts of compounds.
A general note: Liver microsomes are a subcellular fraction often used to study metabolism.

Data set [3] deals with LPS induced vascular leak in the lungs. The experiment in a line: Bacterial toxin (LPS)-induced pulmonary vascular leak, Evans blue dye in lung. The settings on record: mice, LPS 10 mg/kg i.p., compound 5 mg/kg i.p., 24 h. It is filed as in vivo. The procedure:
Adult (20-30 g) female C57B1/6 mice were obtained from a commercial vendor (Harlan, Indianapolis, Ind.). The generation and characterization of the MLCK210 KO mouse strain was previously described. [M. S. Wainwright, J. Rossi, J. Schavocky, S. Crawford, D. Steinhorn, […]. Jia, […]. Van Eldik and D. M. Watterson, Proc. Natl. Acad. Sci. USA 100 (2003) 6233-8.] All animal procedures were performed in accordance with relevant National Institutes of Health guidelines and approved by the Institutional Animal Care and Use Committee of Northwestern University. Pulmonary vascular leak after injurious endotoxin exposure was examined essentially as previously described, above, except using the increase in Evans blue dye in the lung as a quantitative end point. […] The levels of Evans blue in the serum and the tissue supernatant were then determined by measuring the absorbance at 620 nm. The reading at 620 nm (E620) was corrected for the presence of contaminating heme pigments in the samples by measuring the absorbance at 740 nm (E740) and using the correction formula E620=E620-(1.426×E740+0.030). The amount of Evans blue in the samples was then calculated using a standard curve obtained with known amounts of Evans blue. The results were normalized by considering the mean level of Evans blue measured in LPS-treated mice as 100%.

Entries after “also recorded” stand apart in the source; their conditions may differ.

Sequence of death-associated protein kinase (DAPK) (P53355 1-285 limits assumed, species assumed): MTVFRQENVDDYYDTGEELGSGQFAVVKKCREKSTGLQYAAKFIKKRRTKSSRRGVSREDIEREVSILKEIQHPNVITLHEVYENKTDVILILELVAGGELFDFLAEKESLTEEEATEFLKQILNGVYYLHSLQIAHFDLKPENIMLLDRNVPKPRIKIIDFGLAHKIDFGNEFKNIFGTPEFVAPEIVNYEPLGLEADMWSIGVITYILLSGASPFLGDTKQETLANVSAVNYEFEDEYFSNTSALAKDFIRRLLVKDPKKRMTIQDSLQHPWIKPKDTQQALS
Sequence of MLCK (Q15746 whole entry): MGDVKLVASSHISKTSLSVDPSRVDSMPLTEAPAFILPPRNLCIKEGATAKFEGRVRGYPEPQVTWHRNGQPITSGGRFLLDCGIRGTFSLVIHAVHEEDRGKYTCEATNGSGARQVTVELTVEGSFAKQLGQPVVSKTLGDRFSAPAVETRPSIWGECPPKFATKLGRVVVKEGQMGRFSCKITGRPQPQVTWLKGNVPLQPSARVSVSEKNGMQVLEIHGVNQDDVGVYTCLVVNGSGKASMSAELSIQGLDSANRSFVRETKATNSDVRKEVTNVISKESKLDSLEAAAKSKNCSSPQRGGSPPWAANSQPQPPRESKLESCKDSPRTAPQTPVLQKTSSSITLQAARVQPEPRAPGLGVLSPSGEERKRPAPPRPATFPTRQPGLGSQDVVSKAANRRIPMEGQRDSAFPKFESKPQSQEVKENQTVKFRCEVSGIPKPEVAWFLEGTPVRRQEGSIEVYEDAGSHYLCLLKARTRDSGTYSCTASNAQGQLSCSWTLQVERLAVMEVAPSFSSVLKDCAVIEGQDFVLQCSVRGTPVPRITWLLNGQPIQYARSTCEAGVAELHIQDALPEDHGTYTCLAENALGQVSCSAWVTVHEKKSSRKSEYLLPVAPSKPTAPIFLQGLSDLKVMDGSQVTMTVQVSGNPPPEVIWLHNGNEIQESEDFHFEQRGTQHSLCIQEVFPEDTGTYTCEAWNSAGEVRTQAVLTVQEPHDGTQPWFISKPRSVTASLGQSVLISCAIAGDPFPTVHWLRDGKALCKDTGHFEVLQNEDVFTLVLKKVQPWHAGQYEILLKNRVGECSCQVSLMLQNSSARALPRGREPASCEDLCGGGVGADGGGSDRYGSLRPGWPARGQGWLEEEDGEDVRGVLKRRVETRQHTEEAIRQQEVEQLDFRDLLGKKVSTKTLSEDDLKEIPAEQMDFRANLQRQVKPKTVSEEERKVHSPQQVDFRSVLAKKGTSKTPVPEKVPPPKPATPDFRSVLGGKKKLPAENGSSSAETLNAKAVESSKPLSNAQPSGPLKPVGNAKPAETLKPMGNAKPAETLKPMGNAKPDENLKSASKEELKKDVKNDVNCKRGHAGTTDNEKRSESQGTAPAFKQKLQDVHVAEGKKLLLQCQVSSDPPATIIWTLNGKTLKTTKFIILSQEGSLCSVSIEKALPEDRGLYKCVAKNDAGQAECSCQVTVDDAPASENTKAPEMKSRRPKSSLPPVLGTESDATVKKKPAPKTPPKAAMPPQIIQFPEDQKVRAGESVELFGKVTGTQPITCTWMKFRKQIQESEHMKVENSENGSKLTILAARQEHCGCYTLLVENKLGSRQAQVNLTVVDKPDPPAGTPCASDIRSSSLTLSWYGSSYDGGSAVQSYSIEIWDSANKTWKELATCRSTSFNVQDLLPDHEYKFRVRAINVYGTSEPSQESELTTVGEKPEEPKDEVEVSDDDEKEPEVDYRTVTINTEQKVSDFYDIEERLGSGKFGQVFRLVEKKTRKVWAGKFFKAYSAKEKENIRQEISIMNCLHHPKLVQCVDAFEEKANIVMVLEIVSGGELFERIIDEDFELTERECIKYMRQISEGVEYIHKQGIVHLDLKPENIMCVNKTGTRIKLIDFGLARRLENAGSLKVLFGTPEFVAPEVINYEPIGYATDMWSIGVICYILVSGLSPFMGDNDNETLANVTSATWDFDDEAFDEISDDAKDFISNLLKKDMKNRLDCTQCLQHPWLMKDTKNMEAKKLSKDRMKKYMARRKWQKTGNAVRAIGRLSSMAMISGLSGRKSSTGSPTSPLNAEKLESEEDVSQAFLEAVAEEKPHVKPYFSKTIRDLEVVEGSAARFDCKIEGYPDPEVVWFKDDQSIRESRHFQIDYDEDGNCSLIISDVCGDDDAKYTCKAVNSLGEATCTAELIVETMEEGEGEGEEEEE

For the molecule `N=c1ccc(-c2ccccc2)nn1CCCCCCCCCCC(=O)NCCC1CCCC1` [Compound 10, N-(2-cyclopentylethyl)-11-(6-imino-3-phenylpyridazin-1(6H)-yl)undecanamide], the IC50 on MLCK is 2.5 µM; in data set [1] it was 206 µM; on protein kinase C (PKC), 68 µM; on protein kinase A (PKA) it was more than 1000 µM. In addition, the “selectivity for MLCK over related protein kinases (in words)” value (“selectivity for MLCK … (in words)” for short) on MLCK was “selective for MLCK”. Also, the “MLCK inhibitory activity relative to parent compound (in words)” value at MLCK (in vitro, versus compound 6) is listed as “more active in vitro than the parent compound 6”. In addition, in data set [2], the “amount of compound remaining after incubation with human liver microsomes” value was “significantly lower than compound 6; also recorded: significantly different (***p<0.001) at 10 and 30 min compared to zero min”.
For the molecule `CN1CCCC1CCNC(=O)CCCCCCCCCCn1nc(-c2ccccc2)ccc1=N` (stereo not drawn) [Compound 6, 11-(6-imino-3-phenylpyridazin-1(6H)-yl)-N-(2-(1-methylpyrrolidin-2-yl)ethyl)-undecanamide], the IC50 was 13.3 µM on MLCK, more than 1000 µM in data set [1], 414 µM on protein kinase C (PKC) and more than 1000 µM on protein kinase A (PKA). For the same molecule, the “selectivity for MLCK … (in words)” value on MLCK is “highly selective for MLCK; also recorded: selective for MLCK compared to closely related protein kinases”. The “selectivity for MLCK versus DAPK” value at MLCK (ratio from Table 1) is on record as “over 76 times”. In addition, the “level of Evans blue dye in lung tissue (pulmonary vascular leak)” value in data set [3] is “efficacious in vivo to reduce LPS-induced pulmonary vascular leak; also recorded: significantly lower (*p<0.05) levels of dye”. Besides, the “amount of compound remaining after incubation with human liver microsomes” value in data set [2] is “stable”; in data set [2] (listed as compound 6) it was “did not decrease up to 30 minutes of incubation; also recorded: The majority of compound 6 (filled bar) remains after 10 and 30 min incubation times”.
For the molecule `N=c1ccc(-c2ccccc2)nn1CCCCCCCCCCC(=O)NCCc1c[nH]cn1` [Compound 5, N-(2-(1H-imidazol-4-yl)ethyl)-11-(6-imino-3-phenylpyridazin-1(6H)-yl)undecanamide], the IC50 at MLCK was 6.3 µM; in data set [1], 271 µM; on protein kinase C (PKC), 166 µM; on protein kinase A (PKA), more than 1000 µM. At MLCK, the “selectivity for MLCK … (in words)” value is “more selective than compounds 1 or 2”.
